# Laboratory results: ChEMBL document CHEMBL1201862, “PubChem BioAssay data set” (2004)
# The source made the active and inactive calls.
# Tests used:
# P388/ADR = test: cells; format: functional; conditions: Mus musculus
# P388 = test: cells; format: functional; conditions: Mus musculus
# SN12K1 = test: cells; format: functional; conditions: Homo sapiens
# [1] = Luminescence Cell-Based Dose Confirmation HTS to Identify Activators of 5'UTR Stem-Loop Driven Alpha-Synuclein mRNA Translation in H4 Neuroglioblastoma Cells. [Related pubchem assays: 1829 (Project Summary), 1814 (Primary HTS)]; format: functional
# [2] = Luminescence Cell-Based Dose Response HTS to Identify Activators of Luciferase Translation or Activity in H4 […] Cells. [Related pubchem assays: 1829 (Project Summary), 1814 (Primary HTS)]; format: functional
# H4 = test: Luminescence Cell-Based Dose Response HTS to Identify Activators of 5'UTR Stem-Loop Driven Prion Protein mRNA Translation in H4 Neuroglioblastoma Cells. [Related pubchem assays: 1829 (Project Summary), 1814 (Primary HTS)]; format: functional; conditions: Homo sapiens
# [3] = biological target: T1, Adenosylmethionine-8-amino-7-oxononanoate aminotransferase (Mycobacterium tuberculosis, UniProt P9WQ81); test: Mycobacterium tuberculosis BioA enzyme inhibitor Measured in Biochemical System Using Plate Reader - 2163-02_Inhibitor_Dose_CherryPick_Activity.; format: functional, Mycobacterium tuberculosis UT205
# T1 sequence (P9WQ81 whole entry): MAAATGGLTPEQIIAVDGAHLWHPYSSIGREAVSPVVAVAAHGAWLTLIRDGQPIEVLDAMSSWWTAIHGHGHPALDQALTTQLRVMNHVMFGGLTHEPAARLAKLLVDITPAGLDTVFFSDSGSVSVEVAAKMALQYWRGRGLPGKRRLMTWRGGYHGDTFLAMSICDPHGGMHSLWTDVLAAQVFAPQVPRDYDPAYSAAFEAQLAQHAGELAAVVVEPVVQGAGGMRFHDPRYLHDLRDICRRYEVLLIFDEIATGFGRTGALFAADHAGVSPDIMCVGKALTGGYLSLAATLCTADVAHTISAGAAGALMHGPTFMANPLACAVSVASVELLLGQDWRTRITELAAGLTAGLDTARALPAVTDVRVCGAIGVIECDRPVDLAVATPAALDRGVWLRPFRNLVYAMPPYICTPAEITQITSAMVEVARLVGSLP
# [4] = biological target: Voltage-dependent T-type calcium channel subunit alpha-1H (Homo sapiens, UniProt O95180); format: functional;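 note: channel activity triggered by adding a high calcium stimulation buffer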
# Sequence of Voltage-dependent T-type calcium channel subunit alpha-1H (O95180 whole entry): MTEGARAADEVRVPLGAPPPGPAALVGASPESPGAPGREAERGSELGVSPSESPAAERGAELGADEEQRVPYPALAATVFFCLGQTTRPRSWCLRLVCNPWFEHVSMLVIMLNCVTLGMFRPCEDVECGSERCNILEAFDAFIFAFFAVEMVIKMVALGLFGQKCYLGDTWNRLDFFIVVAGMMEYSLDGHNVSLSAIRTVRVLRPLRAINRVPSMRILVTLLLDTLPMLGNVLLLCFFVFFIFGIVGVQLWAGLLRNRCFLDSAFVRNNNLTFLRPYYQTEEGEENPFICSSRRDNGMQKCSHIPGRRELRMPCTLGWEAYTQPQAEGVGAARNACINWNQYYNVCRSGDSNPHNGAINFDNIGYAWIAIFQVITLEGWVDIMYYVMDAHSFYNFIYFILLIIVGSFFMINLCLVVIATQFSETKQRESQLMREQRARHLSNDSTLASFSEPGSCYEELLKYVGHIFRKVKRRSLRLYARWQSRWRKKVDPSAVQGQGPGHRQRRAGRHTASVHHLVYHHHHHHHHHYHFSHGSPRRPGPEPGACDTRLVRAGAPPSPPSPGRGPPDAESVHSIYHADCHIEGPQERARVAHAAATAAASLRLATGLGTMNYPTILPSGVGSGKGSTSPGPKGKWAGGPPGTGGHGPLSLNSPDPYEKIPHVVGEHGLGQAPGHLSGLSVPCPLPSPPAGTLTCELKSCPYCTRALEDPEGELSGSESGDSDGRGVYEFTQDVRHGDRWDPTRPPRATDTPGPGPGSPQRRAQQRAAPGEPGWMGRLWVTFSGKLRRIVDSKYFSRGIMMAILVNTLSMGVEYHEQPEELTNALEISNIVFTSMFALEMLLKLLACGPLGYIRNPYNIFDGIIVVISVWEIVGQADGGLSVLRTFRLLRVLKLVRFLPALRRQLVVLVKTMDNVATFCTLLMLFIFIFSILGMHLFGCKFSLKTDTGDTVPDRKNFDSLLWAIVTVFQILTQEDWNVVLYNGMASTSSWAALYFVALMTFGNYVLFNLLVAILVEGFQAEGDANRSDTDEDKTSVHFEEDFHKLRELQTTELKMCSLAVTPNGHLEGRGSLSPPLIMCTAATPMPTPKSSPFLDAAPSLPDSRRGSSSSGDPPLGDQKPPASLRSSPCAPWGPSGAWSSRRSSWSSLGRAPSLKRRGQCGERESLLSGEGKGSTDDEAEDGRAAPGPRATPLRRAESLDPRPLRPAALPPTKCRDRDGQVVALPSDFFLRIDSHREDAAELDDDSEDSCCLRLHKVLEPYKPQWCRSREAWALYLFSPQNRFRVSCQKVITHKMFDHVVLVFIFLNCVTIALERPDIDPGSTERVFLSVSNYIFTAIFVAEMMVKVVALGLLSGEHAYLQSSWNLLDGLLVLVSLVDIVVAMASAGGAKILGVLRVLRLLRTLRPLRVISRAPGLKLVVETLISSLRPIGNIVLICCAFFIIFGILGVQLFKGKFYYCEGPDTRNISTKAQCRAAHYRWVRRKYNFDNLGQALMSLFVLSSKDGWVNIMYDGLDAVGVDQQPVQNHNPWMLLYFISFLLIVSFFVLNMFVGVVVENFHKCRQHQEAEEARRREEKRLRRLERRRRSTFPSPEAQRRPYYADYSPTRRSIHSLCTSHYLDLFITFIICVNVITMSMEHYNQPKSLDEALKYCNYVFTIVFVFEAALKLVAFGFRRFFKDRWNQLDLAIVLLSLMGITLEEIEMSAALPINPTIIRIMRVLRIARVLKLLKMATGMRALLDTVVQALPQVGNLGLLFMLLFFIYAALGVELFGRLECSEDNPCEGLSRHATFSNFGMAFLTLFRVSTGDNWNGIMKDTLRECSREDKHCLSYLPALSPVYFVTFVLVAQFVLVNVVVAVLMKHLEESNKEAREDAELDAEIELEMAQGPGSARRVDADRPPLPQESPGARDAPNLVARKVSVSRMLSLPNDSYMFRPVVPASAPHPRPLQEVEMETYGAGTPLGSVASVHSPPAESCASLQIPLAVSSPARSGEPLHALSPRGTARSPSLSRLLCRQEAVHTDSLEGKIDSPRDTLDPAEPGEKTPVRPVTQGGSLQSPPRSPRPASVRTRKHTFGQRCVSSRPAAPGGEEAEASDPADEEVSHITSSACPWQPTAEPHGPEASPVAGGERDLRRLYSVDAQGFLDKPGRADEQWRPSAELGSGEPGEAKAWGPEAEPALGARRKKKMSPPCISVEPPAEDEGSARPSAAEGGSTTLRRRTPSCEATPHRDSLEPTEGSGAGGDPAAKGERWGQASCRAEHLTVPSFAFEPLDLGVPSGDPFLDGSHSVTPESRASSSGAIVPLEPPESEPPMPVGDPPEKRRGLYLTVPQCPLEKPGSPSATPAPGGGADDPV
# [5] = biological target: T2, Sentrin-specific protease 8 (Homo sapiens, UniProt Q96LD8); format: functional;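 note: luminescence read-out of SENP8 inhibition, dose-response confirmation following an ultra-high-throughput screen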
# T2 sequence (Q96LD8 whole entry): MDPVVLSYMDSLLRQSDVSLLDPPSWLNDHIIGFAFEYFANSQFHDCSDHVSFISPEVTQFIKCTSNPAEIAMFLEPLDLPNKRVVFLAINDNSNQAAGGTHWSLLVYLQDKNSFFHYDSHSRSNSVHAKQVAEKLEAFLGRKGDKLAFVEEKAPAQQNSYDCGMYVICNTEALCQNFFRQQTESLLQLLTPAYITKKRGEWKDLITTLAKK
# [6] = biological target: T3, Sentrin-specific protease 7 (Homo sapiens, UniProt Q9BQF6); format: functional;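 note: Luminescence-based dose-response confirmation of ultra-high-throughput screening hits, measuring inhibition of SENP7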
# T3 sequence (Q9BQF6 whole entry): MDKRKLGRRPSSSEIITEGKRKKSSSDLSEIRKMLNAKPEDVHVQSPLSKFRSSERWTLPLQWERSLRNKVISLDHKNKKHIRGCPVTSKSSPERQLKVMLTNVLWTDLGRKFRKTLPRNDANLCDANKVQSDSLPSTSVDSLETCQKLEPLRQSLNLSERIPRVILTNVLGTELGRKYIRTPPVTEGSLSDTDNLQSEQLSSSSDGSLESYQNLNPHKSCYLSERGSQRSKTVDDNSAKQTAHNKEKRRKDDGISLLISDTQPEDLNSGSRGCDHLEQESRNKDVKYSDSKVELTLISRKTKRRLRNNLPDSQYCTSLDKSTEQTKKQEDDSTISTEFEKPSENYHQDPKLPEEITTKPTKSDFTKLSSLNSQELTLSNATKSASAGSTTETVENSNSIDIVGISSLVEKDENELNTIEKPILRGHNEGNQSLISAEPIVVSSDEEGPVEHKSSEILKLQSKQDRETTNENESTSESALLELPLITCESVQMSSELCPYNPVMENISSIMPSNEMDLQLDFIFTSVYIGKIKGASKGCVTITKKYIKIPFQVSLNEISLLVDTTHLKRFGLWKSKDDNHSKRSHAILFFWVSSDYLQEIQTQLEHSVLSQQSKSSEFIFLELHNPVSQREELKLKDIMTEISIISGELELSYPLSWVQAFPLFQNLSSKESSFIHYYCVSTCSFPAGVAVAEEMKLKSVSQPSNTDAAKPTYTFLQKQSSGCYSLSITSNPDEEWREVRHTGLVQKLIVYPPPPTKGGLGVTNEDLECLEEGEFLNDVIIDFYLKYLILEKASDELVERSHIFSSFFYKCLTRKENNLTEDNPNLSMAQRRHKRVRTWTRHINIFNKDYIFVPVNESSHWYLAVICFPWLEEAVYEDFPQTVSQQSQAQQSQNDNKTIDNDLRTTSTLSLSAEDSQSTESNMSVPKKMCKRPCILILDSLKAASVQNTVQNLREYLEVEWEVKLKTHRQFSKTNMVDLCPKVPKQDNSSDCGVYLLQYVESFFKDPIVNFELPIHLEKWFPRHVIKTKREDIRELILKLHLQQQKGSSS
# [7] = biological target: T4, Sentrin-specific protease 6 (Homo sapiens, UniProt Q9GZR1); format: functional;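 note: Luminescence-based dose-response confirmatory assay of SENP6 inhibition, following up an ultra-high-throughput screen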
# T4 sequence (Q9GZR1 whole entry): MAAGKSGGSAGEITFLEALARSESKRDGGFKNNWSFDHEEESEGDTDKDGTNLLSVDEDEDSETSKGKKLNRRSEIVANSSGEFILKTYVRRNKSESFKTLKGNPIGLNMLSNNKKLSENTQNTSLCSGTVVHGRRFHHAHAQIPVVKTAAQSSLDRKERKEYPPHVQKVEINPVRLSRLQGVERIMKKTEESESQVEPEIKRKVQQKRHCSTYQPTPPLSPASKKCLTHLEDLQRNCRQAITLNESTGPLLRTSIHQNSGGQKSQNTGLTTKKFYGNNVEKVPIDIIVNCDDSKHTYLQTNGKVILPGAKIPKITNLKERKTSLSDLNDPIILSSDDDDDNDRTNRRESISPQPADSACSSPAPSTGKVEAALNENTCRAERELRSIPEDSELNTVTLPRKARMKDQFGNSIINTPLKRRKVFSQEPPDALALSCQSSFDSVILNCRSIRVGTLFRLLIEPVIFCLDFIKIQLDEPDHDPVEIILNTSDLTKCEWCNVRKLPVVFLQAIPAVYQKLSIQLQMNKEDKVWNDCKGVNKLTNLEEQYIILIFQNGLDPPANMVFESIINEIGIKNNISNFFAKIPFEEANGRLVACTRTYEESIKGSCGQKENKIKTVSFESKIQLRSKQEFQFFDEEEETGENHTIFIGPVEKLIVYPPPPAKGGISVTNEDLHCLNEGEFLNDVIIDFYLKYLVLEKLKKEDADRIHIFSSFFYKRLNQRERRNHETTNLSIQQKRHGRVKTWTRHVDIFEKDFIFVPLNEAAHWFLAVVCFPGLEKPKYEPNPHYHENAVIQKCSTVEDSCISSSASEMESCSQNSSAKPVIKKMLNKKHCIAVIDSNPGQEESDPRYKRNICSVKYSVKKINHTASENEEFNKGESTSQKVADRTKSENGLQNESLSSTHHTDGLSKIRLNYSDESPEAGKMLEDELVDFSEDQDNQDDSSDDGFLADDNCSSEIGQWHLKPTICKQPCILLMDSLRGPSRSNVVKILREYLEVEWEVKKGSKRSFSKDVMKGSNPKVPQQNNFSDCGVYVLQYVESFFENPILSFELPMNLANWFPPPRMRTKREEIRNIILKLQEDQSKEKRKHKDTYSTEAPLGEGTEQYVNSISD
# Caspase-3 = biological target: T5, Caspase-3 (Homo sapiens, UniProt P42574); format: functional;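 note: Dose-response selectivity test against caspase-3 for candidate inhibitors of sentrin-specific proteases (SENPs)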
# T5 sequence (P42574 whole entry): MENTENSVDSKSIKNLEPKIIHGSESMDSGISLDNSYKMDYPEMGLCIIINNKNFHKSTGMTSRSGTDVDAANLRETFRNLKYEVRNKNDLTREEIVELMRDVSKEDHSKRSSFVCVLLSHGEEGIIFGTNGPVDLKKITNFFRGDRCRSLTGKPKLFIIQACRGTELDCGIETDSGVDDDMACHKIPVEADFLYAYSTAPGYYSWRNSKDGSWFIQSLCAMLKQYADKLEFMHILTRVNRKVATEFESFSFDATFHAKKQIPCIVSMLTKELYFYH
# BJ [8] = test: BJ-TERT-LT-ST fibroblast viability loss – cell-based, RAS-independent, luminescence, dose response (AID 1935); format: functional; conditions: Homo sapiens;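 note: BJ fibroblasts immortalized with TERT plus LT and ST oncogenes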
# BJ [9] = test: BJ-TERT fibroblast viability loss – cell-based, RAS-independent, luminescence, dose response (AID 1933); format: functional; conditions: Homo sapiens
# [10] = DRD fibroblast viability loss – cell-based, non-viral oncogenic, luminescence, dose response (AID 1934); format: functional; conditions: Homo sapiens
# BJ [11] = test: cells; format: functional, cell-based; conditions: Homo sapiens
# [12] = biological target: Heat shock protein HSP 90-alpha (Homo sapiens, UniProt P07900); format: functional, organism-based
# [13] = A549 cell cytotoxicity, dose response, cytotoxicity control, plate reader, cherry-pick, antagonist series (AID 743412); format: functional, cell-based
# [14] = viability loss in HEK293 cells – cell-based, plate reader, cherry-picked samples, cytotoxicity control, dose response (AID 743446); format: functional
# [15] = blockade of melanocortin 4 receptor signaling – cell-based, plate reader, cherry pick, counter-screen for LGR2 antagonist project, dose response (AID 743444); format: functional;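 note: transfected HEK 293 cells stimulated with alpha-MSH peptide; potency of inhibitors of the alpha-MSH evoked signal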
# [16] = blockers of bursicon-stimulated LGR2 cAMP reporter – cell-based, HEK293, CRE-luciferase reporter, cherry pick, set 2, dose response (AID 743343); format: functional;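 note: transfected cells were stimulated with diluted bursicon conditioned medium after compound addition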
# H9c2 = test: cells; format: functional, cell-based; conditions: Rattus norvegicus, H9c2, Myocardium;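 note: confirmatory concentration-response retest of ultra-high-throughput screening hits for modulation of myocardial damage; cell death induced by hydrogen peroxide oxidative stress; compound pretreatment for 60 min then peroxide exposure for 2 h; potency is for protecting the cells against peroxide damage rather than for killing them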
smiles,measurement,setting,value
C=C1C(C)C2C(Cc3ccccc3)NC(=O)C23C(OC(C)=O)/C=C/C(C)(O)CC(C)C/C=C/C3C1O (stereo not given),GI50,P388/ADR,2.58 µM (inactive)
same,GI50,P388,0.608 µM (active)
same,GI50,SN12K1,0.0294 µM (active)
CC1CCC2(CC1)NC(=O)N(NC(=O)CCl)C2=O (stereo not given),EC50,[1],34.7 µM (active)
same,EC50,[2],> 120 µM (not active)
same,EC50,H4,> 120 µM (not active)
CC(=O)c1ccc(N2CCN(C(=O)c3ccc4c(c3)OCO4)CC2)cc1,AC50,[3],0.155 µM (active)
O=C(CCSc1nc(-c2ccco2)cc(C(F)(F)F)n1)N1CCN(c2ccccn2)CC1,EC50,[4],6.47 µM (active)
Nn1c(SC/C=C/c2ccccc2)nnc1-c1cccnc1,AC50,[3],0.311 µM (active)
CCc1nnc(NC(=O)CC(CN(C)S(=O)(=O)c2ccccc2)c2ccccc2)s1 (stereo not given),EC50,[4],2.4 µM (active)
COc1cc2c(c(OC)c1OC)C(=O)NCCC2,GI50,P388/ADR,> 100 µM (inactive)
same,GI50,P388,> 100 µM (inactive)
same,GI50,SN12K1,> 100 µM (inactive)
O=C(/C=C/c1ccccc1)n1cnnc1SC/C=C/c1ccccc1,IC50,[5],25.6 µM (active)
same,IC50,[6],8.8 µM (active)
same,IC50,[7],15.2 µM (active)
same,IC50,Caspase-3,37.3 µM (active)
O=C(NC(=S)NC1CCCCCC1)c1cncc(Br)c1,EC50,[1],39.6 µM (active)
same,EC50,[2],76.3 µM (active)
same,EC50,H4,7.48 µM (active)
CCOC(=O)Nc1ccc2nc(N3CCCCCC3)sc2c1,EC50,BJ [8],55.5 µM (inconclusive)
same,IC50,[5],9.44 µM (active)
same,EC50,[2],0.153 µM (active)
same,EC50,BJ [9],10.3 µM (inconclusive)
same,EC50,[10],4.7 µM (inconclusive)
same,IC50,[6],10.5 µM (active)
same,IC50,[7],33.1 µM (active)
same,EC50,H4,> 120 µM (not active)
same,IC50,Caspase-3,31.1 µM (active)
same,EC50,BJ [11],111 µM (active)
CC1CC(C)CN(C(=O)CSc2nnc(-c3ccc(Cl)s3)o2)C1 (stereo not given),EC50,[4],10.8 µM (active)
O=C(Nc1cccc(Cl)c1)Nc1ccccc1C(=O)NCc1ccco1,IC50,[5],> 100 µM (inactive)
same,IC50,[6],4.05 µM (active)
same,IC50,[7],4.44 µM (active)
same,IC50,Caspase-3,21.4 µM (active)
N#C[C@H](OC1OC(COC2OC(CO)C(O)C(O)C2O)C(O)C(O)C1O)c1ccccc1 (stereo not given in full),GI50,P388/ADR,170 µM (inactive)
same,GI50,P388,232 µM (inactive)
same,GI50,SN12K1,> 250 µM (inactive)
CC1Cc2nc(SCC(=O)N3CCOCC3)n(-c3ccccc3)c(=O)c2S1 (stereo not given),AC50,[3],5.31 µM (active)
O=C(CSc1nc2c(c(=O)n1-c1ccc(Cl)cc1)SCC2)N1CCOCC1,AC50,[3],6.81 µM (active)
C/C(=N\OC(=O)c1ccc(Cl)cc1)c1nccs1,IC50,[5],19.2 µM (active)
same,IC50,[6],2.63 µM (active)
same,IC50,[7],11.7 µM (active)
same,IC50,Caspase-3,15.1 µM (active)
O=C1CC(N2CCCCCC2)C(=O)N1c1ccc2c(c1)OCO2 (stereo not given),AC50,[12],4.79 µM (active)
COc1ccc(-c2nc3ccc([N+](=O)[O-])cc3c(=O)[nH]2)cc1,GI50,P388/ADR,> 100 µM (inactive)
same,GI50,P388,> 100 µM (inactive)
same,GI50,SN12K1,26 µM (inactive)
CN1CCN(c2ccc(Cl)cc2NC(=O)C2COc3ccccc3O2)CC1 (stereo not given),EC50,[4],8.08 µM (active)
CCNC(=O)[C@H]1[C@H](CO)[C@H]2Cn3c(ccc(-c4ccccc4)c3=O)[C@H]2N1C(=O)Cc1cccnc1,AC50,[3],16.3 µM (active)
CNC(=O)ON(C(C)=O)C(=O)NC [CARACEMIDE],GI50,P388/ADR,21.4 µM (inactive)
same,GI50,P388,16.4 µM (inactive)
same,GI50,SN12K1,50.9 µM (inactive)
CCc1cc(-c2ccc3c(c2)COc2c4ccccc4nn2-3)on1,AC50,[13],> 52 µM (inactive)
same,AC50,[14],47.8 µM (active)
same,AC50,[15],40.4 µM (active)
same,AC50,[16],22.7 µM (active)
O=C1CCC23CC(C=CC=C12)n1c(=O)n(-c2ccccc2)c(=O)n13 (stereo not given),GI50,P388/ADR,31 µM (inactive)
same,GI50,P388,49.9 µM (inactive)
same,GI50,SN12K1,> 100 µM (inactive)
CCOc1ccc(-n2cc(-c3ccccc3)c3c(N4CCOCC4)ncnc32)cc1,AC50,[13],36.1 µM (active)
same,AC50,[14],> 52 µM (inactive)
same,AC50,[15],47.3 µM (active)
same,AC50,[16],56.7 µM (active)
same,IC50,H9c2,> 79 µM (inactive)
